Results: US10865176B2, “Small molecule modulators of microRNA-34a” (The Chinese University of Hong Kong, priority 2012, dated 2020)

Assays:
[1] = tested on: miR-34a; test: miR-34a reporter luciferase assay in Huh7 cells; type: cell-based, human
Protocol: (§1) The pMIR-REPORT™ luciferase plasmid (1 μg; Ambion) was sequentially double digested with Sac I and Hind III (10 units each, 50 μL reaction; NEB) and was gel purified. Double stranded insert DNA encoding the miR-34a binding site was synthesized through standard oligonucleotide synthesis methods. The sequences used were Forward: 5′z […]-3′ (SEQ ID NO:1) and Reverse: 5′: […]-3′ (SEQ ID NO:2). The insert was hybridized (heated to 95° C., and cooled to 4° C. over 30 min, then held at 4° C. for 60 min) and ligated with T4 ligase (200 units, 10 μL reaction, 1:10 vector/insert ratio; NEB) into the digested pMIR-REPORT™ luciferase vector. Positive colonies were selected by PCR colony screens, and the construction of the pMIR-REPORT™-miR-34a vector was confirmed by double enzyme digestion with NheI, MluI and Nhe I, Hind III (NEB). The luciferase reporter vector containing the miR-34a promoter was kindly provided by Prof. Mendell J T from Johns Hopkins University (21).
Huh7 cells were seeded into 96-well plates 12 h prior to transfection. MiR-34a reporter and the control vector were respectively co-transfected with Renilla luciferase pRL-SV40 into Huh7 cells. All transfections were performed in triplicate. The cells were incubated at 37° C. for 4 h followed by the replacement of transfection media with standard DMEM growth media with 10 μM of the natural products library (NPL) compounds (Tim Tec; 0.1% DMSO final concentration). This library contains 640 compounds including natural products and their derivatives. After 48 h of incubation, the media was removed and cells were lysed and the luciferase signals were measured by luciferase assay as described below.
(§2) MiR-34a reporter, the luciferase reporter vector containing miR-34a promoter and the control vectors were transfected into HCC cells 12 h before compound treatment. The Renilla luciferase vector pRL-SV40 was co-transfected as an internal control. HCC cells were then treated with compound for 48-72 h. The luciferase activity was measured by Dual Luciferase Reporter Assay (Promega) with a Wallac VICTOR^3V luminometer. The ratio of firefly luciferase to Renilla expression was calculated for each of the triplicates.

[2] = tested on: HCC cells; test: MTT cell viability assay, HCC cell lines; type: cell-based, human; details: 5 μM
Protocol: (§3) Cell viability was measured by 3-(4,5-Dimethylthiazol-2-yl)-2,5-diphenyltetrazolium bromide (MTT) assay. 1×10^3 Cells were seeded in triplicate on a 96 well plate and were allowed to grow for indicated time points. At each time point a set of cells were incubated with 0.5 mg/ml MTT diluted in 1×PBS. After 2 to 4 h incubation, the MTT solution was removed. The insoluble MTT was dissolved in DMSO. Absorbance at 570 nm was measured by an ELISA plate reader.

[3] = tested on: p53; test: p53 expression by RT-PCR in HCC cells; type: cell-based, human; details: HepG2, Huh7 and Bel-7404 cells, 10 μM (FIG. 9A)
Protocol: (§4) Total RNA was reversely transcribed into cDNAs using High Capacity cDNA Reverse Transcription Kit (Applied Biosystems, Foster city, CA, USA) and nude RT kit (Invitrogen) individually. qRT-PCR was performed using SYBR Green PCR master mix (TaKaRa, Dalian, China). GAPDH was used as an endogenous control. For measuring miR-34a expression level, qPCR was performed by using SYBR Green PCR master mixture (Invitrogen) and U6 was used as the internal control. All samples were normalized to internal controls and fold changes were calculated by relative quantification (2^−ΔΔct).

[4] = tested on: Cyclin D1 and Bcl-2; test: Expression of miR-34a targets Cyclin D1 and Bcl-2 (qRT-PCR, western blotting) in HCC cells; type: cell-based, human; details: 10 μM, 48 h (RNA) or 72 h (protein)
Protocol: Total RNA from cell cultures and HCC xenograft tumors were extracted using Trizol (Invitrogen) according to manufacturer's protocols. Total RNAs were dissolved into nuclease-free ddH2O. For protein extraction, cells and HCC xenograft tumors were lysed in 1×RIPA buffer with 1 mM PMSF and 1× complete protease inhibitor cocktail (Roche, Indianapolis, Ind.). Both RNA and protein were stored at −80° C.
as §4
Protein quantification was performed using BCA protein assay kit (Thermo Fisher Scientific, Rockford, Ill., USA). 25-50 μg protein was separated by SDS-PAGE (sodium dodecyl sulfate-polyacrylamide gel electrophoresis) and transferred to PVDF membranes (Bio-Rad). […] Protein expression was detected by autoradiography using Amersham ECL Plus™ Western Blotting Detection Reagents (GE Healthcare, Uppsala, Sweden).

[5] = tested on: HepG2 xenografted tumors; test: CD31 immunohistochemical staining of HepG2 xenografted tumors (microvessel density); type: in vivo, nude mice; details: Rubone treated tumors; control group 67.50; p=0.0098
Protocol: Immunohistochemical staining was performed on HepG2 xenografted tumor tissues with CD31 specific antibody (Cat #: Y059114, Abcam, Cambridge, Mass.). Subcutaneous tumor tissue sections were incubated with anti-CD31 overnight at 4° C. Mean microvessel density was calculated by averaging vessel counts from three random fields per slide.

[6] = tested on: Huh7 cells; test: MTT cell viability assay, Huh7; type: cell-based, human; details: Huh7, 10 μM
Protocol: as §3

[7] = tested on: miR-34a promoter; test: miR-34a promoter luciferase activity assay in HCC cells; type: cell-based, human; details: 10 μM
Protocol: as §1, §2

[8] = HepG2 xenograft model, survival, body weight and side effects; details: for Body weight (g) initial / Body weight (g) end: mean (95% CI); for Body weight (g) end: end of 24 d treatment
Protocol: 5×10^6 HepG2 cells were suspended in 100 μl serum-free medium and subcutaneously (s.c.) inoculated into the dorsal flanks of nude mice. When tumors reached 5-10 mm in diameter, mice were randomly divided into 4 groups (n=5). […] Vehicle alone and Sorafenib were used as the negative and positive control respectively. Tumor volumes and body weight were measured once every two days. Tumor volume was calculated as [(Length×Width×Height)±2]. Treatment was continued for 24 d. Finally, all mice were sacrificed and tumors were excised. Tumor weight was recorded.

COc1cc(O)c(C(=O)/C=C/c2cc(OC)c(OC)cc2OC)c(OC)c1 [Rubone, 2′-Hydroxy-2,4,4′,5,6′-pentamethoxychalcone]
function as miR-34a activator, re-assayed in triplicate with miR-34a reporter system [1]: functions as the miR-34a activators are confirmed | IC50 ([1]; Homo sapiens, Huh-7, 48 h): 3.8 µM | luciferase activities of miR-34a reporter ([1]; indicated concentrations, 48 h): inhibited the luciferase activities in a dose-dependent manner | cell growth (MTT) [2]: inhibited the growth of HCC cells slightly | p53 expression [3]: not affected | mRNA and protein levels of Cyclin D1 and Bcl-2 ([4]; HepG2 cells): significantly reduced | mRNA and protein levels of Cyclin D1 and Bcl-2 ([4]; Huh7 cells): significantly reduced | tube score mean (microvessels, CD31 staining) [5]: 12.50 | cell growth (MTT) [6]: significantly inhibited the growth | miR-34a promoter activity ([7]; Bel-7404 (p53 mutant)): increased | miR-34a promoter activity ([7]; Hep3B (p53 deletion)): no change | miR-34a promoter activity ([7]; HepG2 (p53 wild type)): increased | Body weight (g) initial ([8]; 20 mg/kg group): 19.60(95% CI = 18.49 − 20.71)/ g | Body weight (g) end ([8]; 20 mg/kg): 23.60(95% CI = 21.93 − 25.27) g | Mice survival (n) initial/end ([8]; 20 mg/kg, gavage once every two days, 24 d): 5/5 | Body weight (g) initial ([8]; 50 mg/kg group): 20.00(95% CI = 20.00 − 20.00)/ g | Body weight (g) end ([8]; 50 mg/kg): 23.60(95% CI = 21.03 − 26.17) g | Mice survival (n) initial/end ([8]; 50 mg/kg, gavage once every two days, 24 d): 5/5 | side effect at the end of experiment ([8]; tumor bearing nude mice, gavage once every two days, 24 d): No obvious side effect
